Results reported in paper PMC3495945, “Org 214007-0: A Novel Non-Steroidal Selective Glucocorticoid Receptor Modulator with Full Anti-Inflammatory Properties and Improved Therapeutic Index” (PLoS ONE, 2012).
Where two headings read alike, the source gives them in different places.

Experiments:
[1] = system: primary human whole blood cells; test: Human whole blood PMA/anti-CD28-induced cytokine release; assay type: cell-based; conditions: for IC50: read-out: IC50, PMA/anti-CD28-induced IL-5 release
Source text: Hereafter, supernatant was carefully collected and tested at the most optimal dilution (predetermined by a titration study on control samples) in a human TNFα-specific ELISA (for the LPS stimulated samples) or in a human IL-5-specific or human G-CSF-specific ELISA (for the PMA/anti-CD28 stimulated samples) (Duoset, R&D systems USA).

[2] = system: murine collagen-induced arthritis (CIA) model; conditions: for disease score (arthritis score): oral, once daily 3 weeks, therapeutic
Experimental: At day 0 mice were immunized at the base of the tail with 100 μg bovine type II collagen (UMC Nijmegen, The Netherlands) in Complete Freund's Adjuvant (CFA, Difco) enriched with 2 mg/ml Mycobacterium tuberculosis H37RA (Difco). At day 21 mice were boosted by an i.p. injection of 100 μg bovine type II collagen dissolved in saline. After disease onset, mice with an arthritis score ranging from 0.25 to 1.25 were divided into matched groups (n = 12). […] The clinical severity of arthritis (arthritis score) was graded and scored as described [51]. To assess the effects of treatments, the area under the curve (AUC) of arthritis score (subtracting baseline AUC of arthritis score on day 0) was used. One day after the final treatment animals were sacrificed and the knee and ankle joints were imaged using a Faxitron X-ray, Modl MX-20 digital imaging system and analysed using Specimen (Version 2.0.1). The bone destruction was scored on a scale of 0–5 as described previously [51]. The cumulative scores of 2 joints (right ankle and knee) were used as radiological scores. From H&H-stained sections, articular cartilage destruction and inflammatory infiltrate in the right knee joint were scored on a scale of 0–3. The whole study was carried out in a blinded fashion. Statistical analysis was performed using one-way ANOVA.

THP-1 cells = test: Gene expression profiling (microarray) in THP-1 cells; assay type: cell-based, human; conditions: THP-1, 1 μM, 6 hours, top 25 genes, prednisolone set at 100%; for Max. eff., mean repression of genes, microarray: IFNγ/TNFα; for Max. eff., mean induction of genes, microarray: non-stimulated
Experimental: THP-1 cells were incubated with glucocorticoid in the presence of either DMSO (control) or IFNγ/TNFα (220 ng/ml/375 ng/ml). After 6 hours total RNA was isolated and further processed for microarray hybridization as described for the HepG2 cells. The data from all microarray experiments have been deposited in the NCBI Gene Expression Omnibus (GEO) under accession number (identifier will be included in proof). […] Expression of FKBP51, MCP-1, IL-6 and IL-8 protein was measured by specific […]; #A[…] [MCP-1], #A[…] [IL-6] and #A[…] [IL-8]) according to the manufacturer manual. […] Expression of FKBP51, DUSP1 and GILZ was measured by Q-PCR according to the same procedure as described for the HepG2 cells. In this case the following primer-pairs were used: for GAPDH: [NT] and [NT]; for FKBP51: [NT] and [NT]; for DUSP1: [NT] and [NT]; for GILZ: [NT] and [NT]. For the evaluation of protein expression, cells were incubated overnight with a whole dose range of compounds. Supernatants were collected to determine cytokine levels and cell lysates were generated by repeated freeze-thaw cycles to measure expression of FKBP51 protein. Expression of FKBP51, MCP-1, IL-6 and IL-8 was measured by specific […]; #A[…] [MCP-1], #A[…] [IL-6] and #A[…] [IL-8]) according to the manufacturer manual. […] Samples were incubated for 60 min at 23 C. […] Plates were measured using an EnVision-Alpha Reader.

HepG2 cells = test: Gene expression profiling (microarray) in HepG2 cells; assay type: cell-based, human; conditions: HepG2, 1 μM compound, 6 hours; prednisolone set at 100%
Experimental: HepG2-8/97-WS.5 cells, deprived from serum for 18 hours, were stimulated with glucocorticoid and 0.5 mM cAMP for 6 hours. RNA was isolated and used for double stranded cDNA synthesis using the One-Cycle Target Labeling Kit (Affymetrix Santa Clara, CA). This cDNA was used as a template for the preparation of biotin-labeled cRNA using the GeneChip IVT Labeling Kit (Affymetrix Santa Clara, CA). Biotin-labeled cRNA was fragmented and hybridized at 45°C for 16–17 hours to the Human Genome U133A 2.0 Array or the Human Genome U133 Plus 2.0 Array (Affymetrix, Santa Clara, CA). (for more detailed information see Supportive Information) (SI text). Arrays were stained with phycoerythrin-streptavidin conjugate (Molecular Probes, Eugene, OR), and the signals were amplified by staining the array with biotin-labeled anti-streptavidin antibody (Vector Laboratories, Burlingame, CA) followed by phycoerythrin-streptavidin. […] Data was saved as raw image file and quantified using GCOS (Affymetrix). […]
HepG2-8/97-WS.5 cells were seeded at 2.10^5 cells/mL in a 24-well plate in DMEM/F12 medium (Gibco), supplemented with 80 U/mL penicillin, 80 μg/mL streptomycin and 5% Fetal Bovine Serum (Invitrogen). […] RNA quantity and quality were determined using the Agilent […] bioanalyzer. […] Data was saved as raw image file and quantified using GCOS (Affymetrix).

[3] = human whole blood, P/28, prednisolone = 100%

Row | SMILES | EC50 ([1]; Whole blood cell, human whole blood, 24 hours, read-out: EC50, enhancement of PMA/anti-CD28-induced G-CSF release) [µM] | IC50 ([1]; Whole blood cell, human whole blood, 24 hours) [µM] | Max. eff., G-CSF induction [1, 3] | Max. eff., IL-5 repression [1, 3] | disease symptoms ([2]; 1.5 mg/kg/day oral) | bone damage by X-ray on knees and paws ([2]; 0.5 and 1.5 mg/kg/day, end of study) | potency relative to prednisolone ([2]; CIA, oral once daily) | disease score (arthritis score) [2] | histopathology of knee joints: inflammatory infiltrates, cartilage destruction, bone apposition ([2]; two highest doses (0.5 and 1.5 mg/kg/day)) | Max. eff., mean repression of genes, microarray (THP-1 cells) [%] | Max. eff., mean induction of genes, microarray (THP-1 cells; listed as Org) [%] | Max eff., induction of gene expression, micro-array (HepG2 cells) [%] | IC50 ([1]; Homo sapiens, Whole blood cell, 24 h) [µM] | Max. eff., mean induction of genes, microarray (THP-1 cells) [%]
1 | Cc1nnsc1C(=O)N[C@H]1CCN2c3ccc(C#N)cc3[C@@H](C)c3ccccc3[C@@H]2C1 [Org 214007-0] | 0.186 | 0.0144 | 39 (±7.8) % | 64 (±11) % | total suppression | significant reduction | about 3 fold | dose-dependent reduction | significant reduction | 48.3 | 18.9 | 67 | – | –
2 | C[C@]12C=CC(=O)C=C1CC[C@@H]1[C@@H]2[C@@H](O)C[C@@]2(C)[C@H]1CC[C@]2(O)C(=O)CO [prednisolone, reference compound] | – | – | – | 100% | – | – | – | dose-dependent reduction | – | 100 | – | 100 | 0.00676 | 100
